# Active and inactive are the calls of the source. The rule behind the calls is not given here.
# System: Broad 7084-01 inhibitor HTS, set 2
# Assay: inhibitors in Broad screen 7084-01, set 2 (AID 977613);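 note: host cells are infected with parasite promastigotes that become internalized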
row,SMILES,active concentration
1,COC(=O)C[C@@H]1CC[C@@H]2[C@@H](COc3ccc(NC(=O)c4cccc(Cl)c4)cc3C(=O)N2C)O1,> 10 µM (inactive)
2,O=S(=O)(c1ccccc1)N1CC[C@@H]2[C@H]1c1cc(Br)ccc1N[C@@H]2CO,> 10 µM (inactive)
3,O=C(O)[C@H]1[C@H](CO)[C@H]2Cn3c(ccc(-c4ccc(F)cc4)c3=O)[C@@H]1N2CC1CCCCC1,> 10 µM (inactive)
4,O=C(NCc1ccccn1)[C@@H]1[C@@H](CO)[C@@H]2Cn3c(ccc(C4=CCCC4)c3=O)[C@H]1N2Cc1cccnc1,> 10 µM (inactive)
5,O=C(C[C@H]1CC[C@@H]2[C@H](COC[C@@H](O)CN2CC2CC2)O1)NCC1CC1,> 10 µM (inactive)
6,CCCNC(=O)N1CC(=O)N2[C@H](C1)[C@H](c1ccc(-c3ccc(F)cc3)cc1)[C@@H]2CO,> 10 µM (inactive)
7,CC=Cc1ccc2n(c1=O)C[C@@H]1[C@@H](CO)[C@H](C(=O)N[C@@H](C)c3ccccc3)N(C(=O)c3cnccn3)[C@H]21 (mixture of isomers),> 10 µM (inactive)
8,CN1C(=O)c2cc(NC(=O)c3ccc(F)c(F)c3)ccc2OC[C@H]2O[C@@H](CC(=O)N[C@H]3CCN(Cc4ccccc4)C3)CC[C@@H]21,> 10 µM (inactive)
9,O=S(=O)(c1cccs1)N1CCCCN2[C@H](CO)[C@@H](c3ccc(/C=C/c4ccccc4)cc3)[C@@H]2C1,> 10 µM (inactive)
10,O=C(C1CCC1)N1CC2(C1)[C@@H](c1ccccc1)[C@@H](CO)N2C(=O)c1ccccn1,< 10 µM
11,O=S(=O)(c1ccc(F)cc1)N1C[C@H]2[C@@H](c3ccccc31)[C@@H](CO)N2Cc1ccccc1Cl,> 10 µM (inactive)
12,COc1ccc2c3c(n(C)c2c1)[C@H](CO)N(Cc1cccc(F)c1)CC31CCN(C(=O)Cc2ccccc2)CC1,> 10 µM (inactive)
13,N#C[C@@H]1[C@H](c2ccccc2-c2ccc(F)cc2)[C@H](CO)N1C(=O)Cc1cccnc1,> 10 µM (inactive)
14,COc1ccc2c3c(n(C)c2c1)[C@H](CO)N(C(=O)Nc1ccc(F)cc1)CC31CN(C(=O)Cc2ccncc2)C1,> 10 µM (inactive)
15,O=C(C[C@H]1CC[C@@H]2[C@H](COC[C@@H](O)CN2C(=O)Nc2ccc(Cl)cc2)O1)NCC1CC1,> 10 µM (inactive)
16,COc1ccc2c3c([nH]c2c1)[C@@H](CO)N(C(=O)Nc1ccc(F)cc1)CC31CN(S(=O)(=O)c2ccc(C)cc2)C1,> 10 µM (inactive)
17,O=C(C[C@H]1CC[C@H]2[C@@H](COC[C@@H](O)CN2Cc2ccc(Cl)cc2)O1)NCc1ccccc1Cl,> 10 µM (inactive)
18,CN(C)CC(=O)N1CC2(C1)[C@H](c1ccccc1)[C@@H](CO)N2S(C)(=O)=O,> 10 µM (inactive)
19,O=C(C[C@@H]1CC[C@H]2[C@@H](COC[C@@H](O)CN2C(=O)c2ccc3c(c2)OCO3)O1)NC1CCC1,> 10 µM (inactive)
20,O=C(C1CCC1)N1[C@H](CO)[C@@H](c2ccccc2)C12CN(CCC(F)(F)F)C2,> 10 µM (inactive)
21,N#C[C@H]1[C@H](c2ccccc2C2=CCCCC2)[C@@H](CO)N1C(=O)C1CCOCC1,> 10 µM (inactive)
22,O=C(C1CCOCC1)N1CC2(C1)[C@H](c1ccccc1)[C@H](CO)N2CCC(F)(F)F,> 10 µM (inactive)
23,CN1C(=O)c2cc(NS(C)(=O)=O)ccc2OC[C@H]2O[C@@H](CC(=O)NC3CCCCC3)CC[C@H]21,> 10 µM (inactive)
24,CN(C)C(=O)C[C@@H]1CC[C@@H]2[C@H](COC[C@H](O)CN2CC2CCCC2)O1,> 10 µM (inactive)

row,SMILES,active concentration
1,CC(C)NC(=O)N1CC2(C1)[C@H](c1ccccc1)[C@H](CO)N2CCC(F)(F)F,> 10 µM (inactive)
2,COc1ccc(NC(=O)N2CC(=O)N3[C@H](C2)[C@@H](c2ccc(Br)cc2)[C@@H]3CO)cc1,> 10 µM (inactive)
3,CCS(=O)(=O)N1CC(=O)N2[C@H](C1)[C@@H](c1ccc(C#CC3CCCCC3)cc1)[C@@H]2CO,> 10 µM (inactive)
4,C/C=C/c1ccc([C@H]2[C@@H](CO)N3C(=O)CN(S(=O)(=O)c4ccccc4)C[C@@H]23)cc1,> 10 µM (inactive)
5,CN(C)CC(=O)N1[C@@H](CO)[C@@H](c2ccccc2)C12CN(Cc1cc(F)ccc1F)C2,> 10 µM (inactive)
6,O=C(C[C@H]1CC[C@@H]2[C@H](COC[C@H](O)CN2Cc2cc(F)cc(F)c2)O1)NC1CCC1,> 10 µM (inactive)
7,Cc1nn(C)cc1NC(=O)C[C@@H]1CC[C@@H]2[C@H](COc3ccc(NC(=O)C4CCOCC4)cc3C(=O)N2C)O1,> 10 µM (inactive)
8,CCS(=O)(=O)N1CC(=O)N2[C@H](CO)[C@@H](c3ccc(C#CC4CCCCC4)cc3)[C@H]2C1,> 10 µM (inactive)
9,N#C[C@@H]1[C@H](c2ccccc2C2=CCCC2)[C@@H](CO)N1C(=O)CN1CCOCC1,> 10 µM (inactive)
10,O=C1CNC[C@H]2[C@@H](c3ccc(-c4ccccc4F)cc3)[C@H](CO)N12,> 10 µM (inactive)
11,C[C@@H](O)C#Cc1ccc([C@@H]2[C@H](CO)N3CCCCN(C(=O)c4ccc5c(c4)OCO5)C[C@@H]23)cc1,> 10 µM (inactive)
12,COc1ccc2c3c([nH]c2c1)[C@H](CO)N(Cc1ccc(F)cc1)CC31CCN(C)CC1,> 10 µM (inactive)
13,CCNC(=O)Nc1ccc2c(c1)C(=O)N(C)[C@H]1CC[C@H](CC(=O)N[C@@H](C)c3ccccc3)O[C@H]1CO2,> 10 µM (inactive)
14,COc1cccc(NC(=O)N2CC(=O)N3[C@@H](CO)[C@H](c4ccc(C5=CCCCC5)cc4)[C@@H]3C2)c1,> 10 µM (inactive)
15,O=C(c1cccc(F)c1)N1CCCCN2[C@@H](CO)[C@@H](c3ccc(C#CC4(O)CCCC4)cc3)[C@@H]2C1,> 10 µM (inactive)
16,O=C(CN1CCOCC1)N1CC2(C1)[C@@H](c1ccccc1)[C@@H](CO)N2Cc1ccc(F)cc1,> 10 µM (inactive)
17,COCC(=O)N1[C@H](C#N)[C@H](c2ccccc2-c2ccc(C)cc2)[C@@H]1CO,> 10 µM (inactive)
18,O=C(C[C@H]1CC[C@H]2[C@@H](COC[C@@H](O)CN2Cc2nccs2)O1)NCc1ccccc1,> 10 µM (inactive)
19,CCS(=O)(=O)N1CC2(CN(Cc3cc(F)ccc3F)[C@H](CO)c3c2c2ccc(OC)cc2n3C)C1,> 10 µM (inactive)
20,O=C(NCC(F)(F)F)[C@H]1[C@H](CO)[C@H]2Cn3c(cccc3=O)[C@H]2N1Cc1cccc(F)c1,> 10 µM (inactive)
21,O=C(C[C@@H]1CC[C@H]2[C@@H](COC[C@H](O)CN2Cc2cc(F)ccc2F)O1)NCc1ccc(F)cc1,> 10 µM (inactive)
22,COC(=O)C[C@H]1CC[C@@H]2[C@@H](COc3ccc(NS(=O)(=O)c4ccccc4Cl)cc3C(=O)N2C)O1,> 10 µM (inactive)
23,CN1C[C@@H]2[C@H](c3ccccc31)[C@@H](CO)N2C(=O)Nc1cccc(F)c1,> 10 µM (inactive)
24,CN1c2ccc(Br)cc2[C@@H]2[C@@H](CCN2S(=O)(=O)c2cccc(F)c2)[C@@H]1CO,> 10 µM (inactive)

row,SMILES,active concentration
1,CCC(=O)N1[C@H](CO)[C@@H](c2ccc(/C=C/c3ccccc3)cc2)C12CN(S(C)(=O)=O)C2,> 10 µM (inactive)
2,COc1ccc(C#Cc2ccc3c(c2)[C@H]2[C@H](CCN2C(=O)CN2CCOCC2)[C@H](CO)N3C)cc1,> 10 µM (inactive)
3,O=C(c1cccnc1)N1CC2(C1)[C@H](c1ccccc1)[C@@H](CO)N2Cc1ccc(Cl)cc1,> 10 µM (inactive)
4,COC(=O)[C@@H]1[C@@H](CO)[C@@H]2Cn3c(cccc3=O)[C@H]1N2Cc1nccs1,> 10 µM (inactive)
5,O=C(C[C@@H]1CC[C@H]2[C@@H](COC[C@H](O)CN2Cc2ccccc2)O1)NCCc1ccccc1,> 10 µM (inactive)
6,O=C(C[C@@H]1CC[C@H]2[C@@H](COC[C@@H](O)CN2Cc2cccc(C(F)(F)F)c2)O1)NCc1ccccc1,> 10 µM (inactive)
7,COc1cccc(C#Cc2ccc([C@H]3[C@H](CO)N4C(=O)CN(C(=O)Cc5cccnc5)C[C@@H]34)cc2)c1,> 10 µM (inactive)
8,O=C(C[C@@H]1CC[C@@H]2[C@H](COC[C@@H](O)CN2Cc2ccc3c(c2)OCO3)O1)Nc1ccccc1,> 10 µM (inactive)
9,OC[C@@H]1[C@@H](c2ccccc2)C2(CN(Cc3nccs3)C2)N1CC1CCOCC1,> 10 µM (inactive)
10,O=C(C[C@@H]1CC[C@H]2[C@@H](COC[C@@H](O)CN2Cc2ccc3c(c2)OCO3)O1)Nc1ccccc1,> 10 µM (inactive)
11,O=C(C1CCOCC1)N1[C@@H](CO)[C@@H](c2ccccc2)C12CN(Cc1cccc(Cl)c1)C2,> 10 µM (inactive)
12,O=C(c1cccc(F)c1)N1CCCCN2[C@H](C1)[C@@H](c1ccc(C#CC3(O)CCCC3)cc1)[C@@H]2CO,> 10 µM (inactive)
13,CC(=O)N1[C@@H](CO)[C@@H](c2ccc(C3=CCCC3)cc2)C12CN(C(=O)NC(C)C)C2,> 10 µM (inactive)
14,COc1ccccc1NC(=O)N1C[C@@H]2[C@H](c3ccccc31)[C@@H](CO)N2C(C)=O,> 10 µM (inactive)
15,O=S(=O)(c1ccccc1)N1CCCCN2[C@@H](CO)[C@H](c3ccc(C#CC4CCCC4)cc3)[C@@H]2C1,> 10 µM (inactive)
16,Cc1cccc(S(=O)(=O)N2C[C@@H](O)COC[C@H]3O[C@@H](CC(=O)Nc4ccccc4)CC[C@@H]32)c1,> 10 µM (inactive)
17,N#C[C@H]1[C@@H](c2ccccc2-c2ccccc2F)[C@@H](CO)N1C(=O)Cc1ccccc1,> 10 µM (inactive)
18,COc1cccc(NC(=O)Nc2ccc3c(c2)C(=O)N(C)[C@H]2CC[C@@H](CC(=O)NCCc4ccccc4)O[C@H]2CO3)c1,> 10 µM (inactive)
19,C/C=C/c1ccc([C@H]2[C@H]3CN(S(=O)(=O)c4ccccc4)CC(=O)N3[C@H]2CO)cc1,> 10 µM (inactive)
20,COCC(=O)N1[C@H](C#N)[C@@H](c2ccccc2-c2ccccc2F)[C@@H]1CO,> 10 µM (inactive)
21,CCC(=O)N1[C@@H]2Cn3c(ccc(-c4ccncc4)c3=O)[C@H]1[C@@H](C(=O)NC1Cc3ccccc3C1)[C@@H]2CO,> 10 µM (inactive)
22,CC(C)CC#Cc1ccc([C@H]2[C@@H](CO)N3C(=O)CN(S(=O)(=O)c4cccc(F)c4)C[C@@H]23)cc1,> 10 µM (inactive)
